Key:
Assay in all cases: AUC of viability dose-response curve (% viability x log10 dose units); higher = less sensitive
Conditions in all cases: 48 h
SEM cells = system: SEM cells
Procedure, shortened: (§1)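 Leukemia cells adapted to each medium were seeded in 1536-well plates (500 or 1000 cells/well) and given library compounds in DMSO for 48 h at 37°C. The 11 threefold doses spanned 47 μM to 0.79 nM, and CellTiter-Glo One luminescence was normalised per plate to DMSO and cell-free wells before four-parameter log-logistic fitting on log10 dose. Area under the curve was integrated with the trapezoidal rule, scaling curves above full viability and removing curves that failed quality control.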

NOMO1 = system: NOMO1
Procedure, shortened: as §1

P12-Ichikawa = system: P12-Ichikawa
Procedure, shortened: as §1

[1] = RPMI 5 mM glucose + 10% dialyzed FBS

SMILES	AUC of viability dose-response curve (SEM cells; HPLM + 10% dialyzed FBS)	AUC of viability dose-response curve (SEM cells; RPMI 5 mM glucose + 10% FBS)	AUC of viability dose-response curve (SEM cells; [1])	AUC of viability dose-response curve (NOMO1; HPLM + 10% dialyzed FBS)	AUC of viability dose-response curve (NOMO1; RPMI 5 mM glucose + 10% FBS)	AUC of viability dose-response curve (NOMO1; [1])	AUC of viability dose-response curve (P12-Ichikawa; HPLM + 10% dialyzed FBS)	AUC of viability dose-response curve (P12-Ichikawa; RPMI 5 mM glucose + 10% FBS)	AUC of viability dose-response curve (P12-Ichikawa; [1])
C/C=C1\C2C=C(C)CC1(N)c1ccc(=O)[nH]c1C2 (configuration not stated)	442	458	463	463	467	465	471	447	442
CC(C)=CC[C@@H](O)C/1=C/C(=O)C2=C(O)C=CC(=C2C1=O)O	449	407	431	379	354	368	413	415	434
C=C(C)[C@H]1Cc2c(ccc3c2O[C@@H]2COc4cc(OC)c(OC)cc4[C@@H]2C3=O)O1	370	337	379	389	399	413	376	335	366
OC1=CC2=C(C(=C1)O)C(=O)\C=C(/O2)C3=CC=CC=C3	429	410	423	450	453	456	441	443	446
CC/1=C(/N2[C@H](SC1)[C@H](NC(=O)[C@H](N)\C3=C\C\C=C/C3)C2=O)C(O)=O	429	470	448	446	454	461	471	441	440
Cn1cnc2c1c(=O)[nH]c(=O)n2C	447	415	443	440	443	449	452	452	445
Cc1cnc(-c2cc(N3CCN(C(=O)CC[S+](C)(=O)[O-])CC3)ncc2Cl)c(C)c1	426	453	427	404	470	455	466	475	469
O=C(O)c1ccc2c(c1)nc(Nc1cccc(Cl)c1)c1ccncc12	421	412	406	425	437	441	453	437	429
O=C(O[C@H]1C[C@H]2CC[C@@H](C1)[N+]21CCCC1)C(O)(c1ccccc1)c1ccccc1.[Cl-]	460	437	449	472	462	467	461	464	470
C[C@]12CCC(=O)C=C1CC[C@@H]1[C@@H]2CC[C@@]2(C)[C@H]1CC[C@]2(C)O	–	–	–	440	430	453	465	458	452
COc1ncc(-c2ccc3nccc(-c4ccnnc4)c3c2)cc1N[S+](=O)([O-])c1ccc(F)cc1F	–	–	–	303	279	297	354	266	310
COC1=CC=C(C=C1)C/2=C/OC3=C(C(=CC(=C3)O)O)C2=O	463	436	435	460	474	453	465	441	453

— the supplement of paper PMC11451515
